Test results from PubChem BioAssay AID226 (DTP/NCI, 2004).
“And” between values parts separate entries of the source, which are not always exact repeats. Equal values may be shown once. Toxic doses and inconclusive results are not listed.

System: B6C3F1 mice, intracerebral ependymoblastoma, median survival T/C
Assay: NCI In Vivo Anticancer Drug Screen. Data for tumor model Ependymoblastoma (intracerebral) in B6C3F1 mice
Conditions: endpoint: median survival time, higher = longer survival
Method: The antitumor activity of compounds was measured in mice bearing transplantable tumors. Survival or tumor size were measured and the results are expressed as the measurement made in the treated group (T) divided by the measurement made in the vehicle treated control group (C). The tumor model used in this assay is Ependymoblastoma (intracerebral) in B6C3F1 mice

[1] = dose: 32.0 mg/kg/injection, schedule: Q01DX005 (ip), vehicle: saline with Tween-80
[2] = dose: 64.0 mg/kg/injection, schedule: Q01DX005 (ip), vehicle: saline with Tween-80

## O=NN(CCF)C(=O)NC1CCCCC1
dose: 5.1 mg/kg/injection, schedule: Q01DX001 (ip), vehicle: other
  T/C: 106 % of control
dose: 5.18 mg/kg/injection, schedule: Q01DX005 (ip), vehicle: Klucel (hydroxypropylcellulose) (HPC)
  T/C: 184 % of control
dose: 8.64 mg/kg/injection, schedule: Q01DX005 (ip), vehicle: Klucel (hydroxypropylcellulose) (HPC)
  T/C: 357 % of control
dose: 10.2 mg/kg/injection, schedule: Q01DX001 (ip), vehicle: other
  T/C: 123 % of control
dose: 13.0 mg/kg/injection, schedule: Q01DX001 (ip), vehicle: Klucel (hydroxypropylcellulose) (HPC)
  T/C: 153 % of control
dose: 14.4 mg/kg/injection, schedule: Q01DX005 (ip), vehicle: Klucel (hydroxypropylcellulose) (HPC)
  T/C: 357 % of control
dose: 20.4 mg/kg/injection, schedule: Q01DX001 (ip), vehicle: other
  T/C: 160 % of control
dose: 21.6 mg/kg/injection, schedule: Q01DX001 (ip), vehicle: Klucel (hydroxypropylcellulose) (HPC)
  T/C: 216 % of control
dose: 24.0 mg/kg/injection, schedule: Q01DX005 (ip), vehicle: Klucel (hydroxypropylcellulose) (HPC)
  T/C: 357 % of control
dose: 36.0 mg/kg/injection, schedule: Q01DX001 (ip), vehicle: Klucel (hydroxypropylcellulose) (HPC)
  T/C: 363 % of control
dose: 40.7 mg/kg/injection, schedule: Q01DX001 (ip), vehicle: other
  T/C: 220 % of control
dose: 60.0 mg/kg/injection, schedule: Q01DX001 (ip), vehicle: Klucel (hydroxypropylcellulose) (HPC)
  T/C: 363 % of control
dose: 81.4 mg/kg/injection, schedule: Q01DX001 (ip), vehicle: other
  T/C: 331 % of control
dose: 100.0 mg/kg/injection, schedule: Q01DX001 (ip), vehicle: Klucel (hydroxypropylcellulose) (HPC)
  T/C: 333 % of control

## NS(=O)(=O)c1cc2c(cc1Cl)NC=NS2(=O)=O
dose: 37.5 mg/kg/injection, schedule: Q01DX005 (ip), vehicle: Klucel (hydroxypropylcellulose) (HPC)
  T/C: 109 % of control
dose: 75.0 mg/kg/injection, schedule: Q01DX005 (ip), vehicle: Klucel (hydroxypropylcellulose) (HPC)
  T/C: 96 % of control
dose: 150.0 mg/kg/injection, schedule: Q01DX005 (ip), vehicle: Klucel (hydroxypropylcellulose) (HPC)
  T/C: 90 % of control
dose: 300.0 mg/kg/injection, schedule: Q01DX005 (ip), vehicle: Klucel (hydroxypropylcellulose) (HPC)
  T/C: 107 % of control
dose: 600.0 mg/kg/injection, schedule: Q01DX005 (ip), vehicle: Klucel (hydroxypropylcellulose) (HPC)
  T/C: 102 % of control

## COc1cccc2c1C(=O)c1c(O)c3c(c(O)c1C2=O)C[C@@](O)(C(=O)CO)C[C@@H]3OC1CC(N)C(O)C(C)O1 (stereo not given in full)
dose: 0.06 mg/kg/injection, schedule: Q03HX008 (ip), vehicle: saline
  T/C: 104 % of control
dose: 0.12 mg/kg/injection, schedule: Q01DX005 (ip), vehicle: water
  T/C: 96 % of control
dose: 0.12 mg/kg/injection, schedule: Q03HX008 (ip), vehicle: saline
  T/C: 100 % of control and 113 % of control
dose: 0.25 mg/kg/injection, schedule: Q01DX005 (ip), vehicle: saline
  T/C: 94 % of control and 113 % of control and 114 % of control
dose: 0.25 mg/kg/injection, schedule: Q01DX005 (ip), vehicle: water
  T/C: 102 % of control
dose: 0.25 mg/kg/injection, schedule: Q03HX008 (ip), vehicle: saline
  T/C: 106 % of control and 120 % of control
dose: 0.5 mg/kg/injection, schedule: Q01DX005 (ip), vehicle: saline
  T/C: 103 % of control and 105 % of control and 114 % of control
dose: 0.5 mg/kg/injection, schedule: Q01DX005 (ip), vehicle: suspension in saline
  T/C: 103 % of control
dose: 0.5 mg/kg/injection, schedule: Q01DX005 (ip), vehicle: water
  T/C: 92 % of control and 113 % of control
dose: 0.5 mg/kg/injection, schedule: Q03HX008 (ip), vehicle: saline
  T/C: 114 % of control
dose: 1.0 mg/kg/injection, schedule: Q01DX005 (ip), vehicle: saline
  T/C: 109 % of control and 110 % of control and 116 % of control
dose: 1.0 mg/kg/injection, schedule: Q01DX005 (ip), vehicle: suspension in saline
  T/C: 108 % of control
dose: 1.0 mg/kg/injection, schedule: Q01DX005 (ip), vehicle: water
  T/C: 102 % of control and 116 % of control
dose: 2.0 mg/kg/injection, schedule: Q01DX005 (ip), vehicle: saline
  T/C: 116 % of control and 118 % of control
dose: 2.0 mg/kg/injection, schedule: Q01DX005 (ip), vehicle: suspension in saline
  T/C: 121 % of control
dose: 2.0 mg/kg/injection, schedule: Q01DX005 (ip), vehicle: water
  T/C: 107 % of control and 113 % of control
dose: 4.0 mg/kg/injection, schedule: Q01DX001 (oral), vehicle: saline
  T/C: 100 % of control
dose: 4.0 mg/kg/injection, schedule: Q01DX005 (ip), vehicle: saline
  T/C: 100 % of control and 118 % of control and 86 % of control
dose: 8.0 mg/kg/injection, schedule: Q01DX001 (oral), vehicle: saline
  T/C: 96 % of control
dose: 16.0 mg/kg/injection, schedule: Q01DX001 (oral), vehicle: saline
  T/C: 103 % of control
dose: 32.0 mg/kg/injection, schedule: Q01DX001 (oral), vehicle: saline
  T/C: 89 % of control

## O=NN(CCCl)C(=O)NC1CCN(Cc2ccccc2)CC1
dose: 12.5 mg/kg/injection, schedule: Q01DX001 (ip), vehicle: water
  T/C: 124 % of control
dose: 50.0 mg/kg/injection, schedule: Q01DX001 (ip), vehicle: water
  T/C: 160 % of control
dose: 100.0 mg/kg/injection, schedule: Q01DX001 (ip), vehicle: water
  T/C: 242 % of control

## Nc1ccc(S(=O)(=O)c2ccc(N)cc2)cc1
dose: 25.0 mg/kg/injection, schedule: Q01DX005 (ip), vehicle: saline with Tween-80
  T/C: 122 % of control
dose: 50.0 mg/kg/injection, schedule: Q01DX005 (ip), vehicle: saline with Tween-80
  T/C: 100 % of control
dose: 100.0 mg/kg/injection, schedule: Q01DX005 (ip), vehicle: saline with Tween-80
  T/C: 108 % of control

## CC(=O)OCC1C(=O)OCC1C(=O)N1Cc2cc3ccccc3nc2C1 (stereo not given)
dose: 4.0 mg/kg/injection, schedule: Q01DX005 (ip), vehicle: saline with Tween-80
  T/C: 99 % of control
dose: 8.0 mg/kg/injection, schedule: Q01DX005 (ip), vehicle: saline with Tween-80
  T/C: 103 % of control and 104 % of control
dose: 16.0 mg/kg/injection, schedule: Q01DX005 (ip), vehicle: saline with Tween-80
  T/C: 104 % of control
[1]
  T/C: 104 % of control
[2]
  T/C: 90 % of control and 101 % of control
dose: 128.0 mg/kg/injection, schedule: Q01DX005 (ip), vehicle: saline with Tween-80
  T/C: 90 % of control

## CCCCN(C)N=Nc1c(C(N)=O)n[nH]c1C
[2]
  T/C: 166 % of control

## C[CH2][Ge]1([CH2]C)[CH2]CC2(CCN(CCCN(C)C)C2)C[CH2]1
dose: 8.0 mg/kg/injection, schedule: Q01DX005 (ip), vehicle: saline
  T/C: 94 % of control and 103 % of control
dose: 16.0 mg/kg/injection, schedule: Q01DX005 (ip), vehicle: saline
  T/C: 96 % of control and 104 % of control and 107 % of control

## CCCCCCC(=O)O[C@H]1CC[C@H]2[C@@H]3CCC4=CC(=O)CC[C@]4(C)[C@H]3CC[C@]12C
dose: 8.0 mg/kg/injection, schedule: Q01DX005 (ip), vehicle: Klucel (hydroxypropylcellulose) (HPC)
  T/C: 101 % of control and 110 % of control
dose: 16.0 mg/kg/injection, schedule: Q01DX005 (ip), vehicle: Klucel (hydroxypropylcellulose) (HPC)
  T/C: 92 % of control and 100 % of control
dose: 32.0 mg/kg/injection, schedule: Q01DX005 (ip), vehicle: Klucel (hydroxypropylcellulose) (HPC)
  T/C: 95 % of control and 110 % of control
dose: 64.0 mg/kg/injection, schedule: Q01DX005 (ip), vehicle: Klucel (hydroxypropylcellulose) (HPC)
  T/C: 108 % of control and 89 % of control
dose: 128.0 mg/kg/injection, schedule: Q01DX005 (ip), vehicle: Klucel (hydroxypropylcellulose) (HPC)
  T/C: 95 % of control and 96 % of control
dose: 256.0 mg/kg/injection, schedule: Q01DX005 (ip), vehicle: Klucel (hydroxypropylcellulose) (HPC)
  T/C: 97 % of control

## CN(C)N=Nc1ccc([N+](=O)[O-])cc1C(N)=O
[1]
  T/C: 112 % of control
dose: 256.0 mg/kg/injection, schedule: Q01DX005 (ip), vehicle: saline with Tween-80
  T/C: 167 % of control
dose: 512.0 mg/kg/injection, schedule: Q01DX005 (ip), vehicle: saline with Tween-80
  T/C: 150 % of control

## [Cl][Pt+2][Cl].[NH-]C1CCC1.[NH-]C1CCC1
dose: 10.0 mg/kg/injection, schedule: Q01DX005 (ip), vehicle: dextrose
  T/C: 103 % of control
dose: 20.0 mg/kg/injection, schedule: Q01DX005 (ip), vehicle: dextrose
  T/C: 103 % of control
dose: 80.0 mg/kg/injection, schedule: Q01DX005 (ip), vehicle: dextrose
  T/C: 90 % of control

## Cc1ncc(CNC(=O)N(CCCl)N=O)c(N)n1
dose: 8.0 mg/kg/injection, schedule: Q01DX001 (ip), vehicle: water
  T/C: 108 % of control and 121 % of control
dose: 16.0 mg/kg/injection, schedule: Q01DX001 (ip), vehicle: water
  T/C: 175 % of control
dose: 32.0 mg/kg/injection, schedule: Q01DX001 (ip), vehicle: water
  T/C: 262 % of control and 267 % of control
